Assay results reported in patent publication US10632106B2, “Methods of cancer treatment with 2-(1′H-Indole-3′-carbonyl)-thiazole-4-carboxylic acid methyl ester” (Ariagen, Inc., priority 2009, dated 2020).

Test system: T24 (Human bladder cancer) xenografts
Assay: T24 xenograft growth inhibition
Type: in vivo
Conditions: ITE 100-200 mg/kg i.p. once daily
Protocol: All the procedures related to animal handling, care, and the treatment in the study were performed following guidelines of KeyGen Biotechn Co., Ltd. (Nanjing, China), a contract research organization we hired, based on the guidance of the Association for Assessment and Accreditation of Laboratory Animal Care (AAALAC). Animals were checked for any effects of tumor growth and drug treatment on normal behavior such as mobility, food and water consumption, body weight gain/loss (bodyweights were measured every two days), eye/hair matting, and any other abnormal effect. Death and observed clinical signs were recorded. Individual animals with a tumor volume exceeding 3,000 mm^3 or animals of a group with a mean tumor volume exceeding 2,000 mm^3 were euthanized. In addition, animals showing signs of severe distress and/or pain or losing the capability of accessing adequate food or water were humanely sacrificed.
Cell lines HCT116, Siha, MFC were cultured in DMEM medium (high glucose) supplemented with 10% fetal bovine serum (FBS), SW116 and T24 in RPMI-1640 medium with 10% FBS, M14 and A375 in DMEM medium (high glucose) with 10% calf serum (CS), SGC7901 and Ketr-3 in RPMI-1640 medium with 10% CS, and CFPAC-1 in IMDM medium with 10% FBS. All of the cells were cultured, in the presence of 100 U/ml penicillin and 100 μg/ml streptomycin, at 37° C. in an atmosphere of 5% CO2 in air. […] The cells growing in an exponential phase were harvested and counted for tumor inoculation. Cell lines 5180 and U14 were maintained in ascites (peritoneal cavity fluid) of mice and were harvested and counted for tumor inoculation. […]
Tumor volume was measured every two days in two dimensions using a caliper and the volume was calculated with a formula of: V=0.5 a×b^2, where a and b are the long and short diameter (in mm) of a tumor, respectively. […] The TGD was calculated as: TGD=T−C, where T was the time (in days) required for tumors in a drug treated group to reach a predetermined mean tumor volume and C the time (in days) in the control group to reach the same volume. […]

## COC(=O)c1csc(C(=O)c2c[nH]c3ccccc23)n1 [ITE, 2-(1′H-indole-3′-carbonyl)-thiazole-4-carboxylic acid methyl ester]
TGD at Vol. 1,000
  TGD: 9 days
TGI at day 26, TGI=(1−ΔT/ΔC)×100%
  TGI (%): 66%
End of therapy relative to beginning
  Weight Loss: 13%
